From patent publication US6642389B2, “Oxazole derivatives” (Hoffmann-La Roche Inc., priority 2001, dated 2003)

Experiments:
PPARγ [1] = biological target: T1, PPARγ (Mus musculus, UniProt P37238); assay: Radioligand binding assay, PPARγ receptor binding (GST-PPARγ-LBD fusion protein, SPA); conditions: scintillation proximity
T1 construct: made in house; host or cells: E. coli BL21(pLysS)
T1 sequence (P37238 174-475 isoform P37238-2): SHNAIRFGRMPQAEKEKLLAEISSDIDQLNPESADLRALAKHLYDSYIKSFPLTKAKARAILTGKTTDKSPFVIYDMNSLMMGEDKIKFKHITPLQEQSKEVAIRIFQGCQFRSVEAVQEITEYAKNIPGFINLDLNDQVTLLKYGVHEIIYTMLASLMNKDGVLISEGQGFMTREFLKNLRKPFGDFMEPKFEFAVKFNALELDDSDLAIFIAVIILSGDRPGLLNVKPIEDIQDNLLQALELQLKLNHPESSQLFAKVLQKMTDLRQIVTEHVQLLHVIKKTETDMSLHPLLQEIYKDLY
Excerpt: (§1) Full-length cDNA clones for human PPARα and mouse PPARγ were obtained by RT-PCR from human adipose and mouse liver cRNA, respectively, cloned into plasmid vectors and verified by DNA sequencing. […] To accomplish this, the portions of the cloned sequences encoding the LBDs were amplified from the full-length clones by PCR and then subcloned into the plasmid vectors pGEX4T-2(Pharmacia) and pFA-CMV(Stratagene). Final clones were verified by DNA sequence analysis.
(§2) Induction, expression, and purification of GST-LBD fusion proteins were performed in E. coli strain BL21(pLysS) cells by standard methods (Ref: Current Protocols in Molecular Biology, Wiley Press, edited by Ausubel et al.).
PPARγ receptor binding was assayed in TKE50 (50 mM Tris-HCl, pH 8, 50 mM KCl, 2 mM EDTA, 0.1 mg/ml fatty acid-free BSA and 10 mM DTT). For each 96 well reaction an 140 ng equivalent of GST-PPARγ-LBD fusion protein was bound to 10 ug SPA beads (PharmaciaAmersham) in a final volume of 50 ul by shaking. The resulting slurry was incubated for 1 h at RT and centrifuged for 2 min at 1300 g. The supernatant containing unbound protein was removed and the semidry pellet containing the recptor-coated beads was resolved in 50 ul of TKE. For radioligand binding e.g. 10000 dpm 2(S)-(2-benzoyl-phenylamino)-3-{4-[1,1-ditritio-2-(5-methyl-2-phenyl-oxazol-4-yl)-ethoxy]-phenyl}-propionic acid in 50 ul were added, the reaction incubated at RT for 1 h and scintillation proximity counting performed. All binding assays were performed in 96 well plates and the amount of bound ligand measured on a Packard TopCount using OptiPlates (Packard). Nonspecific binding was determined in the presence of 10^−4 M unlabelled compound. Dose response curves were done in triplicates within a range of concentration from 10^−10 M to 10^−4 M.

PPARγ [2] = biological target: T2, PPARγ (Mus musculus, UniProt P37238); assay: Luciferase transcriptional reporter gene assay, pFA-PPARγ-LBD in BHK21 cells; assay type: cell-based; conditions: Gal4-PPARγ-LBD
T2 construct: expressed in transfected cells; host or cells: BHK21 (ATCC CCL10)
T2 sequence (P37238 204-505): T1 sequence (P37238 174-475 isoform P37238-2)
Excerpt: as §1
(§3) Baby hamster kidney cells (BHK21 ATCC CCL10) were grown in DMEM medium containing 10% FBS at 37° C. in a […]:5% CO2 atmosphere. Cells were seeded in 6 well plates at a density of 10^5 Cells/well and then batch-transfected with either the pFA-PPARγ-LBD or pFA-PPARα-LBD expression plasmids plus the pFR-luc reporter plasmid (Stratagene) and an expression plasmid encoding the secretable form of alkaline phosphatase (SEAP) as a normalization control. […] Six hours following transfection, the cells were harvested by trypsinization and seeded in 96 well plates at a density of 10^4 cells/well. After 24 hours to allow attachment of cells, the medium was removed and replaced with 100 ul of phenol red-free medium containing the test substances or control ligands (final. 0.1% DMSO). Following incubation of the cells for 24 hours with substances, 50 ul of the supernatant was recovered and analyzed for SEAP activity (Roche Molecular Biochemicals). The remainder of the supernatant was discarded, 50 ul PBS was added per well followed by one volume of Luciferase Constant-Light Reagent (Roche Molecular Biochemicals) to lyse the cells and initiate the luciferase reaction. Luminescence for both SEAP and luciferase was measured in a Packard TopCount. Luciferase activity was normalized to the SEAP control and transcriptional activation in the presence of a test substance was expressed as fold-activation over cells incubated in the absence of the substance. EC50 values were calculated using the XLfit program (ID Business Solutions Ltd. UK).

PPARα [3] = biological target: T3, PPARα (Homo sapiens, UniProt Q07869); assay: Luciferase transcriptional reporter gene assay, pFA-PPARα-LBD in BHK21 cells; assay type: cell-based; design: expressed in transfected cells; host or cells: BHK21 (ATCC CCL10); conditions: Gal4-PPARα-LBD
T3 sequence (Q07869 167-468 limits assumed): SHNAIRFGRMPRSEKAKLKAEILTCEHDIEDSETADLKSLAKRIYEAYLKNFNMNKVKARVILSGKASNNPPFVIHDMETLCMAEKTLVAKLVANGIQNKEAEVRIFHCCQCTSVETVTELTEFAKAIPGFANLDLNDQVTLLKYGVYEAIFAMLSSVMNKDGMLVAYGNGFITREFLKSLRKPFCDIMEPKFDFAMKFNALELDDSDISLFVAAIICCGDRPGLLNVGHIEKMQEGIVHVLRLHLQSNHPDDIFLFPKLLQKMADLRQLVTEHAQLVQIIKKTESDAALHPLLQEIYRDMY
Excerpt: as §1, §3

PPARα [4] = biological target: T3, PPARα; assay: Radioligand binding assay, PPARα receptor binding (GST-PPARα-LBD fusion protein)
Excerpt: as §1, §2
PPARα receptor binding was assayed in TKE10 (10 mM Tris-HCl, pH 8, 50 mM KCl, 2 mM EDTA, 0.1 mg/ml fatty acid free BSA and 10 mM DTT). […]
PPARγ receptor binding was assayed in TKE50 (50 mM Tris-HCl, pH 8, 50 mM KCl, 2 mM EDTA, 0.1 mg/ml fatty acid-free BSA and 10 mM DTT). […] All binding assays were performed in 96 well plates and the amount of bound ligand measured on a Packard TopCount using OptiPlates (Packard). Nonspecific binding was determined in the presence of 10^−4 M unlabelled compound. […]

| IC50 (PPARγ [1]) | EC50 (PPARγ [2]) | EC50 (PPARα [3]) | IC50 (PPARα [4]) | SMILES | melting point |
| --- | --- | --- | --- | --- | --- |
|  |  |  |  | CCCCOC(Cc1ccc(OCCc2nc(-c3ccccc3)oc2C)c2ccccc12)C(=O)O (stereo not shown) [Example 10, 2-Butoxy-3-{4-[2-(5-methyl-2-phenyl-oxazol-4-yl)-ethoxy]-naphthalen-1-yl}-propionic acid] | 88 to 90 °C (dec.) |
| 3170 nM | 464 nM | 8 nM |  | COC(Cc1ccc(OCCCc2nc(-c3ccc(Cl)cc3)oc2C)c2ccsc12)C(=O)O (racemic) [Example 48, [rac]-3-(4-{3-[2-(4-Chloro-phenyl)-5-methyl-oxazol-4-yl]-propoxy}-benzo[b]thiophen-7-yl)-2-methoxy-propionic acid] |  |
| 25 nM | 188 nM | 746 nM | 109 nM | CCO/C(=C\c1ccc(OCCc2nc(-c3ccccc3)oc2C)c2ccoc12)C(=O)O [Example 83, 2Z-Ethoxy-3-{4-[2-(5-methyl-2-phenyl-oxazol-4-yl)-ethoxy]-benzofuran-7-yl}-acrylic acid] |  |
|  |  |  |  | CCCCOC(Cc1ccc(OCCc2nc(-c3ccccc3)oc2C)c2ccsc12)C(=O)O (stereo not shown) [Example 4, 2-Butoxy-3-{4-[2-(5-methyl-2-phenyl-oxazol-4-yl)-ethoxy]-benzo[b]thiophen-7-yl}-propionic acid] | 123 °C (dec.) |
| 112 nM | 501 nM | 138 nM | 259 nM | C/C(=C/C(=O)c1ccc(C(F)(F)F)cc1)NC(Cc1ccc(OCCc2nc(-c3ccccc3)oc2C)c2ccsc12)C(=O)O (racemic) [Example 106, [rac]-2-[1-Methyl-3-oxo-3-(4-trifluoromethyl-phenyl)-(Z)-propenylamino]-3-{4-[2-(5-methyl-2-phenyl-oxazol-4-yl)-ethoxy]-benzo[b]thiophen-7-yl}-propionic acid] |  |
